Measurements: article PMC9794991, “Evaluation of analogs of mutacin 1140 in systemic and cutaneous methicillin-resistant Staphylococcus aureus infection models in mice” (Frontiers in Microbiology, 2022)
Converted amounts (≈) assume the structure as drawn. “And” between values parts separate entries of the source, which are not always exact repeats. Equal values may be shown once. Where a name gives a salt, the structure may show the parent alone. Read-outs that look alike come from different tables or passages of the source.

How the values were obtained:
[1] = test system: S. aureus ATCC 33591 (MRSA); assay: MIC in broth (CLSI M07-A8) against MRSA 33591; format: cell-based, Staphylococcus aureus
Method: (§1) Preparation of the antimicrobial agent and bacterial inoculum for MICs was performed by following the method described by the Clinical and Laboratory Standards Institute (CLSI; M07-A8; [CLSI, 2018]) and as previously reported by our group ([Chen et al., 2013]; [Escano et al., 2017]; [Geng and Smith, 2018]). […] A single colony from an overnight culture of S. aureus was inoculated in 10 ml of THyex broth (30 g/L Todd Hewitt broth, 3 g/L yeast extract). The inoculum was placed in a shaking incubator at 37°C and 280 rpm and grown to an OD600 of 0.6–0.8. The culture broth was then diluted to an OD600 of 0.132, after which a 20-fold dilution in fresh broth was performed resulting in a ~5 × 10^5 CFU/ml cell density. Mu1140 and Mu1140 analogs were solubilized in dimethyl sulfoxide (DMSO) at a concentration of 1 mg/ml as the stock solution. […] The same volume of DMSO was added to all test samples including the no-drug control. The cultures were placed in a shaking incubator at 37°C and 200 rpm (Stuart orbital incubator SI500). A 100 μl sample from each culture was taken at each time point of 0, 0.25, 0.5, 0.75, 1, 1.5, 2, 4, 8, 18, and 24 h and was serially diluted in fresh medium before being spread on THyex agar plates (30 g/L Todd Hewitt broth, 3 g/L yeast extract, 15 g/L agar) for determining the CFUs. The plates were allowed to grow for 24 h at 37°C before the colony-forming units (CFUs) were counted. The CFU/ml for each time-point at each drug concentration was determined using at least two independent cultures. Plates having 30 to 300 colonies were used for CFU measurements.

[2] = test system: S. aureus ATCC TCH1516 skin infection; assay: Topical treatment of incision MRSA skin infection (Trial 1); format: in vivo, BALB/c mice; settings: for Group mean (±SE) of log CFU/infection site: 10 mg/kg/day topical, twice daily for 6 days from 24 h post-infection, n = 6, vehicle control 5.33 ± 0.64
Method: Trial 1: In this trial, the infection model was performed following methods that were previously reported ([Kugelberg et al., 2005]; [Guo et al., 2013]; [Simonetti et al., 2020]). […] Seven groups (n = 6 mice/group) were acclimatized to the environment for at least 7 days before the start of the experiment. Once the hair on the dorsum of the mice was shaved, a 1 cm incision was made and a 50 μl suspension of S. aureus ATCC TCH1516 in PBS, containing 2 × 10^7 CFUs, was applied directly to the incision. Mice were housed individually until inoculum dried at the incision site (Day (D) 0). Approximately 24 h later (D1), treatment was applied topically twice daily for 6 days. […] Another group received the no-drug vehicle control (0.6% noble agar in citrate buffer). Weights of mice were measured at least once per day, while behavior and the wounds were monitored multiple times per day. Mice were sacrificed 1 day after the last topical treatment (D7). Dermal tissues at the infected sites were sampled and homogenized in sterile PBS. The homogenates were serially diluted and plated on THyex agar for determining CFUs.

[3] = test system: S. aureus ATCC33591 skin infection; assay: Subcutaneous treatment of subcutaneous MRSA skin infection (Trial 2); format: in vivo, BALB/c mice; settings: three times per day for 3 days from 48 h post-infection, n = 8
Method: Trial 2: In this trial, the infection model was performed following methods that were previously reported ([Guo et al., 2013]; [Dejani et al., 2016]). […] Mice were acclimatized to the environment for at least 7 days before initiating experiments. After shaving the hair on the dorsum of the mice, a 50 μl suspension of S. aureus ATCC33591 in PBS, containing 1.5 × 10^7 CFUs, was injected subq (D0). As noted in trial 1, no bleeding was observed during all injections. […] Mice were separated into four groups (n = 8 for treatment and no-drug vehicle control groups; D2). […] The last group received the no-drug vehicle control (sterile water with 20% DMSO). Treatments were administered three times per day to the mice through a 3-point subq injection around the scab with the needle pointed toward the center of the wound. Weights of mice were measured at least once per day, while behavior and the wound sites were monitored multiple times per day. Mice were sacrificed approximately 24-h after the last subq treatment (D6). Dermal tissues at the infected sites were sampled and homogenized in sterile PBS. The homogenates were serially diluted and plated on THyex agar for determining CFUs.

[4] = test system: S. aureus ATCC 33591; assay: Time-kill study (kill kinetics); format: cell-based, Staphylococcus aureus
Method: as §1

[5] = test system: MRSA (S. aureus ATCC 33591) systemic infection; assay: In vivo MRSA systemic infection model (survival); settings: single 10 mg/kg i.v. dose 1 h post-infection
Method: The vehicle (saline with 15% DMSO) served as the no-drug control group of mice. Each mouse was monitored every 4 h during the first 2 days post-infection (day 0 to day 2), and every 8 h from day 2 to day 5.

[6] = test system: S. aureus ATCC33591 skin infection; assay: Intravenous treatment of an in vivo MRSA acute skin infection; set-up: species or system BALB/c mice
Method: Mice were acclimatized to the environment for at least 7 days before initiating experiments. After shaving the hair on the dorsum of the mice, a 50 μl suspension of S. aureus ATCC33591 in PBS, containing 1.5 × 10^7 CFUs, was injected subcutaneously (subq). No bleeding was observed during all injections. […] Mice were separated into four groups (n = 8 for the treatment groups and n = 6 for the control). […] The last group received the no-drug vehicle control (PBS with 5% DMSO). Weights of mice were measured at least once per day, while behavior and the wounds were monitored multiple times per day. Mice were sacrificed approximately 24-h after the last i.v. treatment (Day 6; D6). Dermal tissues at the infected sites were sampled and homogenized in sterile PBS. The homogenates were serially diluted and plated on THyex agar for determining CFUs.

[7] = test system: clinical MRSA isolates; assay: MIC in broth against a panel of clinical MRSA isolates; format: cell-based; settings: Staphylococcus aureus
[8] = Staphylococcus aureus, MRSA 33591, in broth, read-out: MIC
[9] = 10 mg/kg/day i.v. for 5 days, n = 8

CC(=O)O[C@H]1C[C@@]2(C)[C@@H](C[C@@H](O)[C@H]3[C@@]4(C)CC[C@@H](O)[C@@H](C)[C@@H]4CC[C@@]32C)/C1=C(\CCC=C(C)C)C(=O)O [Fusidic acid]
MIC [1, 8]: 1 µg/mL (≈ 1.94 µM) | log reduction in bacterial load compared to the vehicle control group ([2]; 10 mg/kg/day topical for 6 days, not statistically significant): 2.17 log | Group mean (±SE) of log CFU/infection site [2]: 3.16 ± 0.50 log CFU/infection site | Group mean (±SE) of log CFU/infection site ([2]; listed as fusidic acid): 3.16 log CFU/infection site

CC(=O)NC[C@H]1CN(c2ccc(N3CCOCC3)c(F)c2)C(=O)O1 [Linezolid, linezolid]
log reduction in CFUs (mean difference to vehicle control) ([3]; 75 mg/kg/day subq): 0.6 log | log reduction in CFUs (mean difference to vehicle control) ([3]; 75 mg/kg/day subq, listed as linezolid): 0.60 log | MIC [1, 8]: 1 µg/mL (≈ 2.96 µM)

CN[C@H](CC(C)C)C(=O)N[C@H]1C(=O)N[C@@H](CC(N)=O)C(=O)N[C@H]2C(=O)N[C@H]3C(=O)N[C@H](C(=O)N[C@H](C(=O)O)c4cc(O)cc(O)c4-c4cc3ccc4O)[C@H](O)c3ccc(c(Cl)c3)Oc3cc2cc(c3O[C@@H]2O[C@H](CO)[C@@H](O)[C@H](O)[C@H]2O[C@H]2C[C@](C)(N)[C@H](O)[C@H](C)O2)Oc2ccc(cc2Cl)[C@H]1O [Vancomycin, Vancomycin hydrochloride]
reduction in viable cells ([4]; 0.5× MIC): negligible differences between the vehicle control and the treatment groups | time needed for a 2-log reduction in CFUs ([4]; 1× and 2× MIC): 8 hours | time until viable cell counts dropped below the detection limit ([4]; 2× MIC): more than 8 h | viable cells at 18 and 24 h post-administration ([4]; 2× MIC): no viable cells | survival at 12 h post-infection [5]: 75.0% | survival at 24 h post-infection [5]: 50% | effect on bacterial load at the skin lesion site [6, 9]: did not have any significant effect on the bacterial load | effect on bacterial load at the skin lesion site ([6]; 10 mg/kg/day i.v. for 5 days, n = 8, listed as vancomycin): did not show any statistical significance to vehicle control | MIC ([7]; MRSA / USA300, strain USA300, in broth): 2 µg/mL | MIC ([7]; MRSA, strain 602, in broth): 2 µg/mL | MIC ([7]; MRSA, strain 611, in broth): 2 µg/mL | MIC ([7]; MRSA, strain 616, in broth): 2 µg/mL | MIC ([7]; MRSA, strain 631, in broth): 2 µg/mL | MIC ([7]; MRSA, strain 640, in broth): 1 µg/mL | MIC ([7]; MRSA, strain 641, in broth): 2 µg/mL | MIC ([7]; MRSA, strain 644, in broth): 2 µg/mL | MIC ([7]; MRSA, strain 30476, in broth): 2 µg/mL | MIC ([7]; MRSA, strain 31225, in broth): 1 µg/mL | MIC ([7]; MRSA, strain 31258, in broth): 1 µg/mL | MIC ([7]; MRSA, strain CA347, in broth): 2 µg/mL | MIC ([7]; MRSA, strain CA513, in broth): 4 µg/mL | MIC ([7]; MRSA, strain CA-409, in broth): 2 µg/mL | MIC ([7]; MRSA, strain CO-34, in broth): 2 µg/mL | MIC ([7]; MRSA, strain GA442, in broth): 4 µg/mL | MIC ([7]; MRSA, strain HFH30364, in broth): 2 µg/mL | MIC ([7]; MRSA, strain HFH30522, in broth): 1 µg/mL | MIC ([7]; MRSA, strain N315, in broth): 2 µg/mL | MIC ([7]; MRSA, strain SAEH06, in broth): 0.5 µg/mL | MIC ([1]; Staphylococcus aureus): 2 µg/mL

daptomycin
effect on bacterial load at the lesion site ([6]; 25 mg/kg i.v. dose, same experimental conditions, data not shown): no impact on the bacterial load

mutacin 1140 [Mu1140]
log reduction in CFUs (mean difference to vehicle control) ([3]; 25 mg/kg/day subq): 0.78 log | survival at 12 h post-infection [5]: 100% | survival at 24 h post-infection [5]: 83.3% | effect on bacterial load at the skin lesion site [6, 9]: statistically significant reduction in CFUs | mean difference in bacteria load to the vehicle control group ([6]; 10 mg/kg/day i.v. for 5 days, Cohen's d = 1.27, p = 0.0265): 0.61 log CFU | bacteria count at the lesion ([6]; 10 mg/kg/day i.v. twice daily for 5 days from 48 h post-infection, n = 8, vehicle control 7.82): 7.21 log CFU | MIC ([1]; MRSA 33591, in broth): 0.5 µg/mL | MIC compared to fusidic acid and linezolid ([1]; S. aureus 33591): two-fold lower | MIC compared to vancomycin ([1]; S. aureus 33591): four-fold lower | Group mean (±SE) of log CFU/infection site [2]: 5.23 log CFU/infection site and 5.23 ± 0.93 log CFU/infection site
